Earlier results, collected in patent US7641924B2, “Nutritional composition for controlling blood sugar level” (Meiji Dairies Corporation, priority 2001, dated 2010).

What was measured:
[1] = biological target: isomaltase in the small intestine (Homo sapiens, UniProt P14410)
[2] = in vivo

Sequence of isomaltase in the small intestine (P14410 whole entry): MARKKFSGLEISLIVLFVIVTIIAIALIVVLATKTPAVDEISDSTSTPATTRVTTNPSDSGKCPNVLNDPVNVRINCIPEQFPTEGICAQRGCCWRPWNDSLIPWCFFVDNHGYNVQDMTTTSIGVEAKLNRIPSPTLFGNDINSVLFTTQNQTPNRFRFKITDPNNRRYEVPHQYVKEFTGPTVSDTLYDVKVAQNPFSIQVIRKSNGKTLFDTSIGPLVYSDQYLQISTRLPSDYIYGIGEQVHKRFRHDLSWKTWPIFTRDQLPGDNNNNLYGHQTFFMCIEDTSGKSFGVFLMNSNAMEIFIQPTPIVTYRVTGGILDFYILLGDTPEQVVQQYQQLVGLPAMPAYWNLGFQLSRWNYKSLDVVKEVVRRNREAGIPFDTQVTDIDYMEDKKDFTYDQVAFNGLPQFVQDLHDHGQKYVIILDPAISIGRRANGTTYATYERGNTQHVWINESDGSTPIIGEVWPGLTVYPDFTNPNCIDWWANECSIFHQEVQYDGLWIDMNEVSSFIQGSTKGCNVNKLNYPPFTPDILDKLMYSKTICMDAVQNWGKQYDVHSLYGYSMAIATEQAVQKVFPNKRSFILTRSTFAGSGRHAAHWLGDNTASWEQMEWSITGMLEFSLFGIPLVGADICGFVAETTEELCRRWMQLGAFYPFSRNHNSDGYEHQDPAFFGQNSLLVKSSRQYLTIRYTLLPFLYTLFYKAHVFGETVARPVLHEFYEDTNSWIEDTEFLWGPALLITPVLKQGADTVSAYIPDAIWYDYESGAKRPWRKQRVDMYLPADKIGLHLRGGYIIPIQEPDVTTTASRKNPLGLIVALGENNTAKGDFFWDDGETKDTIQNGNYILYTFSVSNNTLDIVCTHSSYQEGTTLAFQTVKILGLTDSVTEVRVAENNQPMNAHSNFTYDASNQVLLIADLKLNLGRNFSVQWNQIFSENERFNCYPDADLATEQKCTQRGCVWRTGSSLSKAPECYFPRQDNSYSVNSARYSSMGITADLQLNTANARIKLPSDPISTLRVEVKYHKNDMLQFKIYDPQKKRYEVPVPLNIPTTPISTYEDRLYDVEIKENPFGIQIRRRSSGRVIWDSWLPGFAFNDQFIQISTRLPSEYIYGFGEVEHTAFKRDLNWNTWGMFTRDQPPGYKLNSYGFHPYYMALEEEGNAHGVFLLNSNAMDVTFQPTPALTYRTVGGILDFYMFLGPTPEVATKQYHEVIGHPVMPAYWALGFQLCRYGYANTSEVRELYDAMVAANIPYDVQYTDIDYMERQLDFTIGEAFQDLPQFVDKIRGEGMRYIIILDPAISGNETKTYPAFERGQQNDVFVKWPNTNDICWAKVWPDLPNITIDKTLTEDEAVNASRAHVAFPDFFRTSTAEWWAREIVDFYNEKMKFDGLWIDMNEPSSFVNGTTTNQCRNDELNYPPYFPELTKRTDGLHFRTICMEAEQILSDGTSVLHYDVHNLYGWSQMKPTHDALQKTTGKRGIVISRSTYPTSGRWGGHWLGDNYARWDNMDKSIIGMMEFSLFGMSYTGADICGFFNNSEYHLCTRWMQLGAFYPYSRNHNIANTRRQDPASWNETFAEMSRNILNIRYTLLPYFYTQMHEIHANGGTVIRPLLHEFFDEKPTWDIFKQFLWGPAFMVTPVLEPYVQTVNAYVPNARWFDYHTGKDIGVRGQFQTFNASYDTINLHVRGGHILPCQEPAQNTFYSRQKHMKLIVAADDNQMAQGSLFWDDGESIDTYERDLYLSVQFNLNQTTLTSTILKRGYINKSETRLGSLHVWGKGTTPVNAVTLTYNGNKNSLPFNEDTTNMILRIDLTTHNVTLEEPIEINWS

| Compound | hydrolysis rate relative to that of sucrose [1] | blood glucose level after intake [2] | insulin level after intake [2] | hydrolysis rate relative to that of palatinose ([1]; small intestine) |
| --- | --- | --- | --- | --- |
| OC[C@H]1O[C@H](OC[C@H]2OC(O)(CO)[C@@H](O)[C@@H]2O)[C@H](O)[C@@H](O)[C@@H]1O (some centres unmarked) [palatinose, Palatinose] | one fifth | maintained at predetermined levels over many hours | maintained at predetermined levels over many hours | – |
| Trehalulose | one third | – | – | about 2 times |
